± gives the expanded uncertainty stated by the source.
Details: 293.15 K; 101.33 kPa; Liquid; Vibrating tube method

| Compound | mass density [kg/m3] |
| --- | --- |
| CN1CCCN(C)C1=O [1,3-dimethyl-3,4,5,6-tetrahydro-2(1H)-pyrimidinone] | 1065 ± 2 |
| CCCCOC(=O)C(C)O (centres undefined) [butyl 2-hydroxypropanoate] | 982 ± 2 |
| O=C1CCCO1 [γ-butyrolactone] | 1129 ± 2 |
| CN1CCN(C)C1=O [1,3-dimethyl-2-imidazolidinone] | 1058 ± 2 |
